Reference: patent publication US20250074871A1, “PHENETHYLAMINES AND METHODS OF PREPARATION THEREOF” (priority 2022, published 2025)
Read-outs that look alike come from different tables or passages of the source.

Assays:
[1] = biological target: T1, 5-HT2A receptor (Homo sapiens, UniProt P28223); test: 5-HT2A Gq dissociation BRET functional assay; type: cell-based; settings: for 5-HT2A BRET Eff %: normalized to % 5-HT stimulation
T1 construct: expressed in transfected cells; host or cells: HEK293T
T1 sequence (P28223 whole entry): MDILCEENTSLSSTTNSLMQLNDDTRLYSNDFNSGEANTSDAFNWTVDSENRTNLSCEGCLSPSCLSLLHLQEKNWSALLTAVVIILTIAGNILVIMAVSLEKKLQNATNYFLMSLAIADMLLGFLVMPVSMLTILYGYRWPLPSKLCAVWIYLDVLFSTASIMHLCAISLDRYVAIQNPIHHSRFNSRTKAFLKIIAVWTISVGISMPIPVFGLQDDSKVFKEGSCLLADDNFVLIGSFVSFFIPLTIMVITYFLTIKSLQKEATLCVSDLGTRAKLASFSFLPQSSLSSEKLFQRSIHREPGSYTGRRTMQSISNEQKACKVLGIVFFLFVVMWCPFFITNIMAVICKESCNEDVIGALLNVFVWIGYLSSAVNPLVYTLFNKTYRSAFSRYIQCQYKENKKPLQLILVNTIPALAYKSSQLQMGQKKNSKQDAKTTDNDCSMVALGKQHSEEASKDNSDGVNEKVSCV

[2] = biological target: T2, 5-HT2B receptor (Homo sapiens, UniProt P41595); test: 5-HT2B Gq dissociation BRET functional assay; type: cell-based; settings: Table 2; for EC50: at least three replicate trials; for 5-HT2B BRET Eff %: normalized to % 5-HT stimulation
T2 construct: expressed in transfected cells; host or cells: HEK293T
T2 sequence (P41595 whole entry): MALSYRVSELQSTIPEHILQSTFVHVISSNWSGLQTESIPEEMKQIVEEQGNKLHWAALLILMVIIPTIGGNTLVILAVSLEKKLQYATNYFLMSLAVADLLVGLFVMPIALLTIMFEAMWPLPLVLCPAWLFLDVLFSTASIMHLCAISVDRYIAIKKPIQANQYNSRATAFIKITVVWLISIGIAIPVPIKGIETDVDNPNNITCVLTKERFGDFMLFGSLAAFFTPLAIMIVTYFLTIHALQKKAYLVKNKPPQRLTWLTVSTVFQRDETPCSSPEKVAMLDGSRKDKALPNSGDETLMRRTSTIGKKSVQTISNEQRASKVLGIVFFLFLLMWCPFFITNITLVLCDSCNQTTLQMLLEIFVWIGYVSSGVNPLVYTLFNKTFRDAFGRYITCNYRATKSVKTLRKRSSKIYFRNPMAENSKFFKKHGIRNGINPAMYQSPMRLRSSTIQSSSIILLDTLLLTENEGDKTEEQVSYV

[3] = biological target: T3, 5-HT2C receptor (Homo sapiens, UniProt P28335); test: cell-based; type: cell-based; settings: Table 2; for EC50: at least three replicate trials, read-out: 5-HT2C BRET EC50; for 5-HT2C BRET Eff %: normalized to % 5-HT stimulation
T3 construct: expressed in transfected cells; host or cells: HEK293T
T3 sequence (P28335 33-458): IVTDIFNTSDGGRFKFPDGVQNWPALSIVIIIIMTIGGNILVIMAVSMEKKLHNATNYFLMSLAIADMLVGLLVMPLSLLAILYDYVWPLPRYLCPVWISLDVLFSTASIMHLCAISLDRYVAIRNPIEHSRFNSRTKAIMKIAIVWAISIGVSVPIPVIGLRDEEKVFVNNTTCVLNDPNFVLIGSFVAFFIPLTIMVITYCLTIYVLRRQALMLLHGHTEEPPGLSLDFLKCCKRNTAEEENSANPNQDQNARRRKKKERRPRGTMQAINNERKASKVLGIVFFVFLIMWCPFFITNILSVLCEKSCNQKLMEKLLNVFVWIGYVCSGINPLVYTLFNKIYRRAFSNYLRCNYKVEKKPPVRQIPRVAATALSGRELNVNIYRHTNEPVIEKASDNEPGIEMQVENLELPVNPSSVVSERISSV

[4] = biological target: T4, human ether-a-go-go-related gene (hERG) K+ channel (Homo sapiens, UniProt Q12809); test: Eurofins hERG Qube APC Assay; type: cell-based; settings: for IC50 (hERG)/EC50 (5-HT2A) ratio: Table 4; for hERG risk potential: based on IC50 (hERG)/EC50 (5-HT2A) ratio
T4 construct: Eurofins
T4 sequence (Q12809 whole entry): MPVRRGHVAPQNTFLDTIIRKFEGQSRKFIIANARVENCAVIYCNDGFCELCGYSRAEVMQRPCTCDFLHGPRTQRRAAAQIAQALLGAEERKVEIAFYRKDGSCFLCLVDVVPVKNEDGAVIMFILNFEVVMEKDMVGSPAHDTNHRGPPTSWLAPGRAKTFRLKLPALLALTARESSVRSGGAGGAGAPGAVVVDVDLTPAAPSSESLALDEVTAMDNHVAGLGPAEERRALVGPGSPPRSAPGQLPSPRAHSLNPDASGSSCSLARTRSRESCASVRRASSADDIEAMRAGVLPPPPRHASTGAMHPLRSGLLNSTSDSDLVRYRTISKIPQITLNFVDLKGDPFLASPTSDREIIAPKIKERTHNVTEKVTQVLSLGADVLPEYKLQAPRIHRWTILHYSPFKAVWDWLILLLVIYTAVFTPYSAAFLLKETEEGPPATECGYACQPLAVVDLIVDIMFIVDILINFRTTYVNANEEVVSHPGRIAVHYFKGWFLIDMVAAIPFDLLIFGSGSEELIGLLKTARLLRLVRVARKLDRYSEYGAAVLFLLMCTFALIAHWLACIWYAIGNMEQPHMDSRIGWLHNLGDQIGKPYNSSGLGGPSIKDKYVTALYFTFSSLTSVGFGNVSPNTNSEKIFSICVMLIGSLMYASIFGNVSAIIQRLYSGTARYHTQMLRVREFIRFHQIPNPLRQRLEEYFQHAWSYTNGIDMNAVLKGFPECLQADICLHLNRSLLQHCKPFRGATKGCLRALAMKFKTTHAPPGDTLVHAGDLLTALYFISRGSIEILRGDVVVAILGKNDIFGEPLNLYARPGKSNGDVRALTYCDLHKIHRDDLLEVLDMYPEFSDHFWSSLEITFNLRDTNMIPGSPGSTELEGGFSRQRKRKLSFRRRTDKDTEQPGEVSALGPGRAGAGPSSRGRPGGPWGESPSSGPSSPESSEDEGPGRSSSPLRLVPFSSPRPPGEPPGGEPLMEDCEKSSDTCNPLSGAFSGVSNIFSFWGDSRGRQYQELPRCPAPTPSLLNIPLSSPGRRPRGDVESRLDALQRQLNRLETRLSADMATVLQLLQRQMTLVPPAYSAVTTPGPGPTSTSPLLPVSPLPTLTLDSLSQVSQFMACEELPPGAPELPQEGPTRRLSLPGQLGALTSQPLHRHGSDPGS
Source text: As used herein and unless otherwise specified, the term “hERG risk” refers to the risk of a compound potentially inhibiting the human ether-a-go-go-related gene (hERG) K^+ channel, thereby leading to QT prolongation.
As a result of, many compounds disclosed in Table 1 and Table 2 were screened for the potential of “hERG risk” using pharmacological assays (e.g. Eurofins™ hERG Qube APC Assay). […].

[5] = system: mice; test: head-twitch response (HTR) in mice; type: in vivo, male C57BL/6J mice; settings: Mus musculus; mice
Description: As used herein and unless otherwise specified, the term “HTR” refers to head-twitch response, which is a measurement of 5-HT2A activation in vivo.
As used herein and unless otherwise specified, the term “mice” refers to male C57BL/6J mice (6-8 weeks old).
HTR was assessed using a head-mounted neodymium magnet and a magnetometer detection coil, as described in Halberstadt et al., Psychopharmacology (Berl.), 2013, 227(4): 727-739. Table 8 below summarizes the ED50 in head twitch in mice of various compounds disclosed herein as compared to psilocybin. FIG. 3 illustrates the HTR relative to dose for compound 109: […]

[6] = Table 2, at least three replicate trials, read-out: 5-HT2A BRET EC50
[7] = Table 4, unit inferred, read-out: EC50 BRET 2A
[8] = 5-HT2A BRET EC50 (nM), Table 2, at least three replicate trials
[9] = EC50 BRET 2A, Table 4, unit inferred

## COc1cc(C#N)ccc1CCNCc1cccc2occc12 [Cpd #64]
[1]; [6]
  EC50: 29.8 nM
[1]; Table 2
  5-HT2A BRET Eff %: 82%
[1]; [7]
  EC50: 29.8 nM
[2]; read-out: 5-HT2B BRET EC50
  EC50: 8920 nM
[2]
  5-HT2B BRET Eff %: 93%
[3]
  EC50: 357 nM
  5-HT2C BRET Eff %: 104%
[4]
  IC50: 900 nM
  IC50 (hERG)/EC50 (5-HT2A) ratio: 30
  hERG risk potential: High (compounds exhibiting a IC50 (hERG) /EC50 (5-HT2A) ratio of less than or equal to 150 are generally indicative of high hERG risk potential)

## COc1cccc(CNCCc2ccc(C#N)cc2OC)c1 [Cpd #28]
[1]; [8]
  EC50: 84 nM
[1]; [9]
  EC50: 84 nM
[1]; Table 2
  5-HT2A BRET Eff %: 68%
[2]
  5-HT2B BRET EC50 (nM) / Eff %: Inactive
[3]
  EC50: 873 nM
  5-HT2C BRET Eff %: 91%
[4]
  IC50: 1600 nM
  IC50 (hERG)/EC50 (5-HT2A) ratio: 19
  hERG risk potential: High (compounds exhibiting a IC50 (hERG) /EC50 (5-HT2A) ratio of less than or equal to 150 are generally indicative of high hERG risk potential)

## CSc1ccc(CCNCc2ccccc2O)c(O)c1 [Cpd #122]
[1]; [8]
  EC50: 1.6 nM
[1]; [9]
  EC50: 1.4 nM
[1]; Table 2
  5-HT2A BRET Eff %: 92%
[2]
  5-HT2B BRET EC50 (nM) / Eff %: inactive
[3]
  EC50: 3.6 nM
  5-HT2C BRET Eff %: 108%
[4]
  IC50: 790 nM
  IC50 (hERG)/EC50 (5-HT2A) ratio: 564

## Oc1cc(Cl)ccc1CCNCc1ccccc1O [Cpd #131]
[1]; [8]
  EC50: 2.4 nM
[1]; [9]
  EC50: 2.1 nM
[1]; Table 2
  5-HT2A BRET Eff %: 93%
[2]
  5-HT2B BRET EC50 (nM) / Eff %: Inactive
[3]
  EC50: 1.8 nM
  5-HT2C BRET Eff %: 103%
[4]
  IC50: 1310 nM
  IC50 (hERG)/EC50 (5-HT2A) ratio: 624
[5]
  ED50: 1.24 mg/kg

## CN(C)CCc1c[nH]c2cccc(OP(=O)(O)O)c12 [Psilocybin, psilocybin, reference compound]
[5]
  ED50: 0.38 mg/kg

## COc1cc(C#N)ccc1CCNCc1ccccc1Cl [Cpd #12]
[1]; [8]
  EC50: 102 nM
[1]; [9]
  EC50: 102 nM
[1]; Table 2
  5-HT2A BRET Eff %: 90%
[2]
  5-HT2B BRET EC50 (nM) / Eff %: Inactive
[3]
  EC50: 1200 nM
  5-HT2C BRET Eff %: 130%
[4]
  IC50: 1720 nM
  IC50 (hERG)/EC50 (5-HT2A) ratio: 17
  hERG risk potential: High (compounds exhibiting a IC50 (hERG) /EC50 (5-HT2A) ratio of less than or equal to 150 are generally indicative of high hERG risk potential)

## COc1cc(C#N)ccc1CCNCc1ccccc1SC [Cpd #108]
[1]; [8]
  EC50: 2.4 nM
[1]; [9]
  EC50: 2.4 nM
[1]; Table 2
  5-HT2A BRET Eff %: 99%
[2]; 5-HT2B BRET EC50 (nM)
  EC50: 2380 nM
[2]
  5-HT2B BRET Eff %: 128%
[3]
  EC50: 16 nM
  5-HT2C BRET Eff %: 103%
[4]
  IC50: 1780 nM
  IC50 (hERG)/EC50 (5-HT2A) ratio: 742
[5]
  ED50: 7.23 mg/kg

## Oc1ccccc1CNCC(O)c1ccc(C(F)(F)F)cc1OCc1ccccc1 (centres unmarked) [Reference Compound 1a, reference compound]
[1]; [6]
  EC50: 451 nM
[1]; Table 2
  5-HT2A BRET Eff %: 91%
[1]; [7]
  EC50: 451 nM
[2]; read-out: 5-HT2B BRET EC50
  EC50: 342 nM
[2]
  5-HT2B BRET Eff %: 56%
[3]
  EC50: 326 nM
  5-HT2C BRET Eff %: 105%
[4]
  IC50: 2300 nM
  IC50 (hERG)/EC50 (5-HT2A) ratio: 5
  hERG risk potential: High (compounds exhibiting a IC50 (hERG) /EC50 (5-HT2A) ratio of less than or equal to 150 are generally indicative of high hERG risk potential)

## COc1cc(C#N)ccc1CCNCc1cccc2c1OCO2 [Cpd #65]
[1]; [8]
  EC50: 19.7 nM
[1]; [9]
  EC50: 19.7 nM
[1]; Table 2
  5-HT2A BRET Eff %: 84%
[2]
  5-HT2B BRET EC50 (nM) / Eff %: Inactive
[3]
  EC50: 496 nM
  5-HT2C BRET Eff %: 97%
[4]
  IC50: 2000 nM
  IC50 (hERG)/EC50 (5-HT2A) ratio: 102
  hERG risk potential: High (compounds exhibiting a IC50 (hERG) /EC50 (5-HT2A) ratio of less than or equal to 150 are generally indicative of high hERG risk potential)

## COc1cc(C#N)ccc1CCNCc1ccccc1OC [Cpd #27]
[1]; [8]
  EC50: 4.2 nM
[1]; [9]
  EC50: 4.2 nM
[1]; Table 2
  5-HT2A BRET Eff %: 96%
[2]; 5-HT2B BRET EC50 (nM)
  EC50: 423 nM
[2]
  5-HT2B BRET Eff %: 66%
[3]
  EC50: 15.9 nM
  5-HT2C BRET Eff %: 109%
[4]
  IC50: 2000 nM
  IC50 (hERG)/EC50 (5-HT2A) ratio: 476
[5]
  ED50: 3 mg/kg

## COc1cc(C#N)ccc1CCNCc1cccc2c1CCO2 [Cpd #63]
[1]; [8]
  EC50: 135 nM
[1]; [9]
  EC50: 135 nM
[1]; Table 2
  5-HT2A BRET Eff %: 62%
[2]
  5-HT2B BRET EC50 (nM) / Eff %: Inactive
[3]
  EC50: 2090 nM
  5-HT2C BRET Eff %: 78%
[4]
  IC50: 1600 nM
  IC50 (hERG)/EC50 (5-HT2A) ratio: 12
  hERG risk potential: High (compounds exhibiting a IC50 (hERG) /EC50 (5-HT2A) ratio of less than or equal to 150 are generally indicative of high hERG risk potential)

## COc1cc(C#N)c(F)cc1CCNCc1ccccc1O [Cpd #117]
[1]; [8]
  EC50: 3.8 nM
[1]; [9]
  EC50: 3.8 nM
[1]; Table 2
  5-HT2A BRET Eff %: 97%
[2]; 5-HT2B BRET EC50 (nM)
  EC50: 4360 nM
[2]
  5-HT2B BRET Eff %: 68%
[3]
  EC50: 40.8 nM
  5-HT2C BRET Eff %: 115%
[4]
  IC50: 900 nM
  IC50 (hERG)/EC50 (5-HT2A) ratio: 237
[5]
  ED50: 2.09 mg/kg
